From paper PMC10821019, “F16 Hybrids Derived from Steviol or Isosteviol Are Accumulated in the Mitochondria of Tumor Cells and Overcome Drug Resistance” (Molecules, 2024)

Key:
A549 (lung carcinoma) = test: SRB cytotoxicity assay, A549; type: cell-based, human; conditions: for selectivity index 2 (SI 2): CCD18Co/A549; for IC50: SRB assay, 72 h treatment, mean n = 3, SD 5-10%
Excerpt: (§1) All compounds were screened for their cytotoxic activity and tumor cell selectivity using our standard model, previously described, comprising a selection of human tumor cell lines representing different solid tumor entities and non-malignant human fibroblasts (CCD18Co) including the cell line pair A2780/A2780cis, a well-known model of acquired drug resistance.
(§2) Reagents were bought from commercial suppliers and used without further purification. The solvents were dried according to the usual procedures. TLC was performed on silica gel (Macherey-Nagel, detection with UV absorption; Macherey-Nagel, Düren, Germany). […] Numbering in the NMR spectra: 1–20 (diterpene core), 21–24 for O-(CH2)n-N fragment followed by the pyridinium ring, the ethenyl moiety and the indole moiety. […] IR spectra were recorded on a Perkin-Elmer Spectrum Two (UATR Two Unit, Perkin-Elmer GmbH, Rodgau, Germany). […] Both media were supplemented with 10% fetal bovine serum (Biowest, Nuaillé, France) and 1% penicillin-streptomycin (Sigma-Aldrich).
(§3) Cytotoxic activities of compounds were analyzed using the SRB cytotoxicity assay. Cells were seeded in 96-well plates and after 24 h were treated with serial dilutions of compounds for 72 h. All subsequent steps were performed according to the previously described SRB assay protocol. Dose–response curves and calculation of IC50 values, including standard deviations, were carried out using GraphPad Prism8.

[1] = tested on: A2780cis (resistant derivative of A2780); test: SRB cytotoxicity assay, A2780cis; type: cell-based, human; conditions: for resistance index (RI): quotient IC50 values A2780cis/A2780; for IC50: SRB assay, 72 h treatment, mean n = 3, SD 5-10%
Excerpt: as §1, §2, §3

[2] = tested on: A2780 (ovarian carcinoma); test: SRB cytotoxicity assay, A2780; type: cell-based, human; conditions: for selectivity index 1 (SI 1): CCD18Co/A2780; for IC50: SRB assay, 72 h treatment, mean n = 3, SD 5-10%
Excerpt: as §1, §2, §3

[3] = tested on: CCD18Co (non-malignant human fibroblasts); test: SRB cytotoxicity assay, CCD18Co; type: cell-based; conditions: 72 h treatment, mean n = 3, SD 5-10%
Excerpt: as §1, §2, §3

[4] = tested on: HT29 (colorectal carcinoma); test: SRB cytotoxicity assay, HT29; type: cell-based, human; conditions: 72 h treatment, mean n = 3, SD 5-10%
Excerpt: as §1, §2, §3

MCF7 (breast carcinoma) = test: SRB cytotoxicity assay, MCF7; type: cell-based, human; conditions: 72 h treatment, mean n = 3, SD 5-10%
Excerpt: as §1, §2, §3

Compound | selectivity index 2 (SI 2) (A549 (lung carcinoma)) | resistance index (RI) [1] | selectivity index 1 (SI 1) [2] | IC50 [3] [µM] | IC50 (A549 (lung carcinoma)) [µM] | IC50 [4] [µM] | IC50 [1] [µM] | IC50 [2] [µM] | IC50 (MCF7 (breast carcinoma)) [µM] | drug resistance in the A2780/A2780cis model, in words ([1]; A2780cis vs A2780) | tumor cell selectivity, in words ([2]; tumor cells vs non-malignant fibroblasts CCD18Co)
4-Bromobutyl (4α) -13-Hydroxykaur-16-en-18-oate Bromide [Compound 22] | 1.68 | 1.14 | 3.58 |  |  |  |  |  |  |  | 
C=C1C[C@@]23CC[C@H]4[C@@](C)(CCC[C@@]4(C)C(=O)OCCBr)[C@@H]2CC[C@]1(O)C3 [Compound 6, 2-Bromoethyl (4α)-13-Hydroxykaur-16-en-18-oate] | 0.51 | 1.13 | 1.70 | 42.2 | 83.4 | 30.6 | 28.1 | 24.8 | 29.4 |  | 
C[C@@]12CC[C@@H]3[C@@](CC[C@H]4[C@@]3(C)CCC[C@@]4(C)C(=O)OCCBr)(CC1=O)C2 [Compound 7, 2-Bromoethyl (4α, 8β, 13β) 13-Methyl-16-oxo-17-norkauran-18-oate] | 1.94 | 1.50 | 3.26 | 62.3 | 32.1 | 16.1 | 28.7 | 19.1 | 11.8 |  | 
C=C1C[C@@]23CC[C@H]4[C@@](C)(CCC[C@@]4(C)C(=O)OCC[n+]4ccc(/C=C/c5c[nH]c6ccccc56)cc4)[C@@H]2CC[C@]1(O)C3.[Br-] [Compound 8, 2-{4-[(E)-2-(1H-Indol-3-yl)ethenyl]-pyridinium-1-yl}-ethyl (4α)-13-Hydroxykaur-16-en-18-oate Bromide] | 1.34 | 0.92 | 5.87 | 11.8 | 8.82 | 1.81 | 1.86 | 2.01 | 1.81 |  | 
CC12CCC3C(CCC4C(C)(C(=O)OCC[n+]5ccc(C=Cc6c[nH]c7ccccc67)cc5)CCCC34C)(CC1=O)C2.[Br-] (stereo not drawn) [Compound 9, 2-{4-[(E)-2-(1H-Indol-3-yl)-ethenyl]pyridinium-1-yl}-ethyl (4α, 8β, 13β) 13-Methyl-16-oxo-17-norkauran-18-oate Bromide] | 1.42 | 1.66 | 13.96 | 13 | 9.09 | 1.56 | 1.54 | 0.93 | 1.08 |  | 
C=C1C[C@@]23CC[C@H]4[C@@](C)(CCC[C@@]4(C)C(=O)OCC[n+]4cccc(/C=C/c5c[nH]c6ccccc56)c4)[C@@H]2CC[C@]1(O)C3 [Compound 10, 2-{3-[(E)-2-(1H-Indol-3-yl)ethenyl]-pyridinium-1-yl}-ethyl (4α)-13-Hydroxykaur-16-en-18-oate Bromide] |  |  |  | 22.7 |  | 7.65 | 4.2 | 2.8 | 3.83 |  | 
C=C1C[C@@]23CC[C@H]4[C@@](C)(CCC[C@@]4(C)C(=O)OCC[n+]4ccccc4/C=C/c4c[nH]c5ccccc45)[C@@H]2CC[C@]1(O)C3.[Br-] [Compound 12, 2-{2-[(E)-2-(1H-Indol-3-yl)ethenyl]-pyridinium-1-yl}-ethyl (4α)-13-Hydroxykaur-16-en-18-oate Bromide] | 1.40 | 1.14 | 2.95 | 75.9 | 54.3 | 28.5 | 29.4 | 25.7 | 20.2 |  | 
CC12CCC3C(CCC4C(C)(C(=O)OCC[n+]5ccccc5C=Cc5c[nH]c6ccccc56)CCCC34C)(CC1=O)C2.[Br-] (stereo not drawn) [Compound 13, 2-{2-[(E)-2-(1H-Indol-3-yl)ethenyl]-pyridinium-1-yl}-ethyl (4α, 8β, 13β) 13-Methyl-16-oxo-17-norkauran-18-oate Bromide] | 1.90 | 2.12 | 10.75 | 20.6 | 10.8 | 6.35 | 4.07 | 1.92 | 3.83 |  | 
C=C1C[C@@]23CC[C@H]4[C@@](C)(CCC[C@@]4(C)C(=O)OCCCBr)[C@@H]2CC[C@]1(O)C3 [Compound 14, 3-Bromopropyl (4α) -13-hydroxykaur-16-en-18-oate] | 1.44 | 1.03 | 1.51 | 41.7 | 29 | 29.1 | 28.4 | 27.7 | 28.1 |  | 
CC12CCC3C(CCC4C(C)(C(=O)OCCCBr)CCCC34C)(CC1=O)C2 (stereo not drawn) [Compound 15, 3-Bromopropyl (4α, 8β, 13β) 13-Methyl-16-oxo-17-norkauran-18-oate] | 1.67 | 1.85 | 4.61 | 41.5 | 24.8 | 15.1 | 16.6 | 9 | 12.8 |  | 
C=C1C[C@@]23CC[C@H]4[C@@](C)(CCC[C@@]4(C)C(=O)OCCC[n+]4ccc(/C=C/c5c[nH]c6ccccc56)cc4)[C@@H]2CC[C@]1(O)C3.[Br-] [Compound 16, 3-{4-[(E)-2-(1H-Indol-3-yl)ethenyl]-pyridinium-1-yl}-propyl (4α)-13-Hydroxykaur-16-en-18-oate Bromide] | 2.77 | 1.41 | 26.27 | 8.33 | 3 | 0.98 | 0.45 | 0.32 | 0.72 |  | 
C=C1C[C@@]23CC[C@H]4[C@@](C)(CCC[C@@]4(C)C(=O)OCCC[n+]4cccc(/C=C/c5c[nH]c6ccccc56)c4)[C@@H]2CC[C@]1(O)C3.[Br-] [Compound 18] | 2.84 | 1.19 | 11.82 | 26.9 | 9.47 | 6.66 | 2.71 | 2.28 | 9.47 |  | 
CC12CCC3C(CCC4C(C)(C(=O)OCCC[n+]5cccc(C=Cc6c[nH]c7ccccc67)c5)CCCC34C)(CC1=O)C2.[Br-] (stereo not drawn) [Compound 19, 3-{3[(E)-2-(1H-Indol-3-yl)-ethenyl]-pyridinium-1-yl}-propyl (4α, 8β, 13β) 13-Methyl-16-oxo-17-norkauran-18-oate Bromide] | 1.38 | 1.94 | 15.60 | 15.5 | 11.2 | 5.05 | 1.93 | 0.99 | 2.5 |  | 
C=C1C[C@@]23CC[C@H]4[C@@](C)(CCC[C@@]4(C)C(=O)OCCC[n+]4ccccc4/C=C/c4c[nH]c5ccccc45)[C@@H]2CC[C@]1(O)C3.[Br-] [Compound 20, 3-{2-[(E)-2-(1H-Indol-3-yl)-ethenyl]-pyridinium-1-yl}-propyl (4α)-13-Hydroxykaur-16-en-18-oate bromide] | 1.55 | 1.49 | 10.73 | 19.4 | 12.6 | 6.11 | 2.7 | 1.81 | 1.85 |  | 
CC12CCC3C(CCC4C(C)(C(=O)OCCCCBr)CCCC34C)(CC1=O)C2 (stereo not drawn) [Compound 23, 4-Bromobutyl (4α, 8β, 13β) 13-Methyl-16-oxo-17-norkauran-18-oate] | 0.91 | 2.23 | 2.40 | 31.3 | 34.3 | 24.6 | 29.1 | 13 | 18.4 |  | 
C=C1C[C@@]23CC[C@H]4[C@@](C)(CCC[C@@]4(C)C(=O)OCCCC[n+]4ccc(/C=C/c5c[nH]c6ccccc56)cc4)[C@@H]2CC[C@]1(O)C3.[Br-] [Compound 24] | 4.74 | 1.13 | 53.96 | 13.1 | 2.76 | 0.88 | 0.28 | 0.24 | 0.58 | able to reduce or even overcome drug resistance | retained selectivity
C=C1C[C@@]23CC[C@H]4[C@@](C)(CCC[C@@]4(C)C(=O)OCCCC[n+]4cccc(/C=C/c5c[nH]c6ccccc56)c4)[C@@H]2CC[C@]1(O)C3.[Br-] [Compound 26, 4-{3-[(E)-2-(1H-Indol-3-yl)-ethenyl]-pyridinium-1-yl}butyl (4α)-13-Hydroxykaur-16-en-18-oate Bromide] | 1.69 | 1.42 | 9.14 | 11.7 | 6.94 | 2.43 | 1.82 | 1.28 | 1.98 |  | 
